Results taken from patent publication US9512114B2, “Substituted aminopyrimidine compounds and methods of use” (Calitor Sciences, LLC, priority 2013, dated 2016).

Tests used:
[1] = system: rheumatoid arthritis model; details: Nature Medicine, 2005, 11, 936-943; cited from earlier work
[2] = system: systemic lupus erythematosis model; details: Nature Medicine, 2005, 11, 933-935; cited from earlier work
PI3Kδ = details: Cell, 2006, 125, 733-747; cited from earlier work
protein kinases = details: Cell, 2006, 125, 733-747; cited from earlier work
[3] = system: ovalbumin-induced airway inflammation; details: murine asthma model, FASEB, 2006, 20: 455-465; cited from earlier work
[4] = Compound stability in human liver microsomes; format: in vitro ADME; details: pH 7.4; for CLint scaled at 5 μM: liver microsomes, in vivo CLint extrapolated from human liver microsome incubation; for half-life at 5 μM: human liver microsomes 0.5 mg protein/mL, compound 5 μM, NADPH 1.0 mM, 37° C., read-out: Human T1/2
Experimental: (§1) The LC/MS/MS system used in the analysis consists of an Agilent 1200 Series vacuum degasser, binary pump, well-plate autosampler, thermostatted column compartment, the Agilent G6430 Triple Quadrupole Mass Spectrometer with an electrosprayionization (ESI) source. Quantitative analysis was carried out using MRM mode. The parameters for MRM transitions are in the Table A.
(§2) An Agilent XDB-C18, 2.1×30 mm, […] column was used for the analysis. 5 μL of the samples were injected. Analysis condition: The mobile phase was 0.1% formic acid in water (A) and 0.1% formic acid in methanol (B). The flow rate was 0.4 mL/min. And the gradient of Mobile phase was in the Table B.
(§3) Alternatively, an Agilent 6330 series LC/MS/MS spectrometer equipped with G1312A binary pumps, a G1367A autosampler and a G1314C UV detector were used in the analysis. An ESI source was used on the LC/MS/MS spectrometer. The analysis was done in positive ion mode as appropriate and the MRM transition for each analyte was optimized using standard solution. A Capcell MP-C18 100×4.6 mm I.D., […] column (Phenomenex, Torrance, Calif., USA) was used during the analysis. The mobile phase was 5 mM ammonia acetate, 0.1% MeOH in water (A): 5 mM ammonia acetate, 0.1% MeOH in acetonitrile (B) (70:30, v/v). The flow rate was 0.6 mL/min. Column was maintained at ambient temperature. 20 μL of the samples were injected.
(§4) Human or rat liver microsomes incubations were conducted in duplicate in polypropylene tubes. The typical incubation mixtures consisted of human or rat liver microsomes (0.5 mg protein/mL), compounds of interest (5 μM) and NADPH (1.0 mM) in a total volume of 200 μL potassium phosphate buffer (PBS, 100 mM, pH 7.4). Compounds were dissolved in DMSO and diluted with PBS such that the final concentration of DMSO was 0.05%. The enzymatic reactions were commenced with the addition of protein after a 3-min preincubation and incubated in a water bath open to the air at 37° C. Reactions were terminated at various time points (0, 5, 10, 15, 30, 60 min) by adding equal volume of ice-cold acetonitrile. The samples were stored at −80° C. until LC/MS/MS assays.
(§5) The concentrations of compounds in the incubation mixtures of human or rat liver microsomes were determined by a LC/MS/MS method. The ranges of the linearity in the concentration range were determined for each tested compounds.
(§6) A parallel incubation was performed using denatured microsomes as the negative control, and reactions were terminated at various time points (0, 15, 60 min) after incubation at 37° C.
(§7) Dextromethorphan (70 μM) was selected as the positive control, and reactions were terminated at various time points (0, 5, 10, 15, 30, 60 min) after incubation at 37° C. Both positive and negative control samples were included in each assay to ensure the integrity of the microsomal incubation system.
(§8) The concentrations of compounds in human or rat liver microsome incubations were plotted as a percentage of the relevant zero time point control for each reaction. The in vivo CLint were extrapolated (ref.: Naritomi, Y.; Terashita, S.; Kimura, S.; Suzuki, A.; Kagayama, A.; and Sugiyama, Y.; Prediction of human hepatic clearance from in vivo animal experiments and in vitro metabolic studies with liver microsomes from animals and humans. Drug Metab. Dispos., 2001, 29: 1316-1324).

[5] = Compound stability in rat liver microsomes; format: in vitro ADME; details: pH 7.4; for CLint scaled at 5 μM: liver microsomes, in vivo CLint extrapolated from rat liver microsome incubation; for half-life at 5 μM: rat liver microsomes 0.5 mg protein/mL, compound 5 μM, NADPH 1.0 mM, 37° C., read-out: Rat T1/2
Experimental: as §1, §2, §3, §4, §5, §6, §7, §8

[6] = Pharmacokinetic profiles in rats; format: in vivo, rat; details: for Cl/F / AUC(0-t) / half-life / Vd: iv dosing 1 mg/kg; for F: oral vs iv (iv 1 mg/kg; p.o. generally 5 or 10 mg/kg); for AUC(0-t) / half-life / Vd: rat, plasma; for Vd: read-out: Vss
Experimental: The compounds disclosed herein are assessed in pharmacokinetic studies in mice, rats, dogs or monkeys. The compounds are administered as a water solution, 2% HPMC+1% TWEEN®80 in water solution, 5% DMSO+5% solutol in saline, 4% MC suspension or capsule. For the intravenous administration, the animals are generally given at 1 or 2 mg/kg dose. For the oral (p.o.) dosing, mice and rats are generally given 5 or 10 mg/kg dose, and dogs and monkeys are generally given 10 mg/kg dose. The blood samples (0.3 mL) are drawn at 0.25, 0.5, 1.0, 2.0, 3.0, 4.0, 6.0, 8.0, 12 and 24 h time points or 0.083, 0.25, 0.5, 1.0, 2.0, 4.0, 6.0, 8.0 and 24 h time points and centrifuged at 3,000 or 4000 rpm for 2 to 10 min. The plasma solutions are collected, stored at −20° C. or −70° C. until analyzed by LC/MS/MS as described above.

PI3K (p110α/p85α) (h) = PI3K (p110α/p85α) (h) (Homo sapiens (Human), UniProt P42336); experiment: PI3K (p110α/p85α) (h) non-radioactive HTRF kinase assay; format: biochemical; details: performed at Millipore UK Ltd
Experimental: (§9) The above assay procedure can be used to determine the IC50 for inhibition and/or the inhibition constant, Ki.
PI3K (p110α/p85α) (h) [Non-Radioactive Assay]
(§10) PI3K (p110α/p85α) (h) is incubated in assay buffer containing 10 μM phosphatidylinositol 4,5-bisphosphate and MgATP (concentration as required). The reaction is initiated by the addition of the ATP solution. After incubation for 30 minutes at room temperature, the reaction is stopped by the addition of stop solution containing EDTA and biotinylated phosphatidylinositol-3,4,5-trisphosphate. Finally, detection buffer is added, which contains europium-labelled anti-GST monoclonal antibody, GST-tagged GRP1 PH domain and streptavidin allophycocyanin. The plate is then read in timeresolved fluorescence mode and the homogenous time-resolved fluorescence (HTRF) signal is determined according to the formula HTRF=10000×(Em665 nm/Em620 nm).
(§11) The kinase assays described herein were performed at Millipore UK Ltd, Dundee Technology Park, Dundee DD2 1SW, UK.

PI3K (p110δ/p85α) (h) = PI3K (p110δ/p85α) (h) (Homo sapiens (Human), UniProt O00329); experiment: PI3K (p110δ/p85α) (h) non-radioactive HTRF kinase assay; format: biochemical; details: performed at Millipore UK Ltd
Experimental: as §9
PI3K (p110δ/p85α) (h) [Non-Radioactive Assay]
as §10, with “(p110δ/p85α)” for “(p110α/p85α)”, “phosphatidylinositol-4, 5-bisphosphate” for “phosphatidylinositol 4,5-bisphosphate”, “MgATP mix.” for “ATP solution.”, “streptavidin-allophycocyanin.” for “streptavidin allophycocyanin.”
as §11

PI3K (p120γ) (h) = PI3K (p120γ) (h) (Homo sapiens (Human), UniProt P48736); experiment: PI3K (p120γ) (h) non-radioactive HTRF kinase assay; format: biochemical; details: performed at Millipore UK Ltd
Experimental: as §9
PI3K (p120γ) (h) [Non-Radioactive Assay]
as §10, with “(p120γ)” for “(p110α/p85α)”, “phosphatidylinositol-4, 5-bisphosphate” for “phosphatidylinositol 4,5-bisphosphate”, “MgATP mix.” for “ATP solution.”, “streptavidin-allophycocyanin.” for “streptavidin allophycocyanin.”
as §11

PI3K (p110β/p85α) (h) = PI3K (p110β/p85α) (h) (Homo sapiens (Human), UniProt P42338); experiment: PI3K (p110β/p85α) (h) non-radioactive HTRF kinase assay; format: biochemical; details: performed at Millipore UK Ltd
Experimental: as §9
PI3K (p110β/p85α) (h) [Non-Radioactive Assay]
as §10, with “([…])” for “(p110α/p85α)”, “phosphatidylinositol-4, 5-bisphosphate” for “phosphatidylinositol 4,5-bisphosphate”, “MgATP mix.” for “ATP solution.”, “streptavidin-allophycocyanin.” for “streptavidin allophycocyanin.”
as §11

Chain of PI3K (p110δ/p85α) (h) (O00329 whole entry): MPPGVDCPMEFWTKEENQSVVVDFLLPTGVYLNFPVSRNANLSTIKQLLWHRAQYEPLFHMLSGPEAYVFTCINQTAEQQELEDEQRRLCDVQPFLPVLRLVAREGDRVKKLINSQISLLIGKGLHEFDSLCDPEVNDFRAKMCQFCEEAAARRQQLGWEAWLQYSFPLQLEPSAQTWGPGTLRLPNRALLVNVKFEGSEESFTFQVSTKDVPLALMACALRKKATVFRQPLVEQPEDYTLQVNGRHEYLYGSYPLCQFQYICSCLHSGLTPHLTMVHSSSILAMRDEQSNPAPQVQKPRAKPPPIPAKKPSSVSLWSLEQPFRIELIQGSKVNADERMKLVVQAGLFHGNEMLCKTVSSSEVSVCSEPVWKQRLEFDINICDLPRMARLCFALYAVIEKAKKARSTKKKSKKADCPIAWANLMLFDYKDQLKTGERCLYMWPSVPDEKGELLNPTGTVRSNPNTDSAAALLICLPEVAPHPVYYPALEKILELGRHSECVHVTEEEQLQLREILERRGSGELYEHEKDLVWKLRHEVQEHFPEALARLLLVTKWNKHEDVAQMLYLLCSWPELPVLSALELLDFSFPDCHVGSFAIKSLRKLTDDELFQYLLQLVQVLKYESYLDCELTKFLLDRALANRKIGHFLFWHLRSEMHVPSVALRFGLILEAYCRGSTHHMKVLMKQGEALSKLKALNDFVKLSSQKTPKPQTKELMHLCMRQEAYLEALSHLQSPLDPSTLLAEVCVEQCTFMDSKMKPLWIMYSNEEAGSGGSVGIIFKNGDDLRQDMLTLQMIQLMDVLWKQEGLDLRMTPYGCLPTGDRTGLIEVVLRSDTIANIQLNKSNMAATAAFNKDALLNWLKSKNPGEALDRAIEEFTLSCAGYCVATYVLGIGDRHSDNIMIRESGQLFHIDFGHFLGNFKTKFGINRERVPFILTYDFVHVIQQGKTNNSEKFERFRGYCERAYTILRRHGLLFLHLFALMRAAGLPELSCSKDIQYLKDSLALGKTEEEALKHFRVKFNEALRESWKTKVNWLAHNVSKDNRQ
Chain of PI3K (p110δ/p85α) (h) (P27986 whole entry partner): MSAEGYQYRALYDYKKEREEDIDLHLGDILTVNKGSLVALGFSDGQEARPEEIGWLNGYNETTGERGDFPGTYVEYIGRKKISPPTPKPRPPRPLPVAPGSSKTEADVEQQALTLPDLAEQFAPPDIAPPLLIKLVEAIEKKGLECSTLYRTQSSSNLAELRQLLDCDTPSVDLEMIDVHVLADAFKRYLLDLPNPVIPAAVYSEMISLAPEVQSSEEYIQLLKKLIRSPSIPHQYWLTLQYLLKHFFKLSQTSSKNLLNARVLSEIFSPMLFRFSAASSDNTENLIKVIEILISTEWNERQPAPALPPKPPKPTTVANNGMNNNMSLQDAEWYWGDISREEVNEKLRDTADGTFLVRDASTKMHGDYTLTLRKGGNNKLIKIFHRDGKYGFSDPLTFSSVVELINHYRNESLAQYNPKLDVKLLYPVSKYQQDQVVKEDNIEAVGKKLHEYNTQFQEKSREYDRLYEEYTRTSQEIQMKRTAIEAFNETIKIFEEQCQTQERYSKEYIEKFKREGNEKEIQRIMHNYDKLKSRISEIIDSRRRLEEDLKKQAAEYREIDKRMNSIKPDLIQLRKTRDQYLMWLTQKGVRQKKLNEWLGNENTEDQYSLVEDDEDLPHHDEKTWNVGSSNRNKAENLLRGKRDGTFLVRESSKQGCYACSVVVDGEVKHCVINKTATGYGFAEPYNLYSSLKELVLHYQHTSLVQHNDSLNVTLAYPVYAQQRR
Chain of PI3K (p110α/p85α) (h) (P42336 whole entry): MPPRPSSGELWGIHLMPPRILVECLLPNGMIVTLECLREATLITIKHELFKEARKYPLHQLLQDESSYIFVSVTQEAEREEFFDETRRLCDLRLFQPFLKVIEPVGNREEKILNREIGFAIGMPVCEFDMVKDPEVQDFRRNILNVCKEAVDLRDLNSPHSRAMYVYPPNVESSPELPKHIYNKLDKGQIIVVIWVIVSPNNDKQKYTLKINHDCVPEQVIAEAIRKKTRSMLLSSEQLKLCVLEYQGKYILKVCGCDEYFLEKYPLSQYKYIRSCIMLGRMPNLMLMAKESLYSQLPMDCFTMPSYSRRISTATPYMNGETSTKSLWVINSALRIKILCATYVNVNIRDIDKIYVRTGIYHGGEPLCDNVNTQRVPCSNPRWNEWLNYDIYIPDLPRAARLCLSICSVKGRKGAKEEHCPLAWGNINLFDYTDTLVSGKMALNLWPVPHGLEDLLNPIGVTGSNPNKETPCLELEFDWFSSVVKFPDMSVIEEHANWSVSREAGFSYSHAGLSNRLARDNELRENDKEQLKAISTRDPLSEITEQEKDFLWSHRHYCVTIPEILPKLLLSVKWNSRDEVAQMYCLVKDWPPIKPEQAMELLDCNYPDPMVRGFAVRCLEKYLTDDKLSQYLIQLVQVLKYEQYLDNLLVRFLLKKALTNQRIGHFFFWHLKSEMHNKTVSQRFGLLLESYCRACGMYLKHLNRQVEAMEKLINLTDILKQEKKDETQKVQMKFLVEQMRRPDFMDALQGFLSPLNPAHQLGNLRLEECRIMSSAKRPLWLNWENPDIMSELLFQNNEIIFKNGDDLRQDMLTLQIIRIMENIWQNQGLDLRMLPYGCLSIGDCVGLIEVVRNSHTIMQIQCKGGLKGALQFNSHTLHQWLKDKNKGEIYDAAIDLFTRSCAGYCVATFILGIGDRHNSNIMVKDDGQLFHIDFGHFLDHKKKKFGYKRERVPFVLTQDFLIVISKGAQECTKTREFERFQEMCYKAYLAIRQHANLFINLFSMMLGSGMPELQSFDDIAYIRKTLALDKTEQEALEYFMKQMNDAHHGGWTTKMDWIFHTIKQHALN
Chain of PI3K (p110α/p85α) (h) (P27986 whole entry partner): as the sequence (P27986 whole entry partner) above
Chain of PI3K (p120γ) (h) (P48736 whole entry): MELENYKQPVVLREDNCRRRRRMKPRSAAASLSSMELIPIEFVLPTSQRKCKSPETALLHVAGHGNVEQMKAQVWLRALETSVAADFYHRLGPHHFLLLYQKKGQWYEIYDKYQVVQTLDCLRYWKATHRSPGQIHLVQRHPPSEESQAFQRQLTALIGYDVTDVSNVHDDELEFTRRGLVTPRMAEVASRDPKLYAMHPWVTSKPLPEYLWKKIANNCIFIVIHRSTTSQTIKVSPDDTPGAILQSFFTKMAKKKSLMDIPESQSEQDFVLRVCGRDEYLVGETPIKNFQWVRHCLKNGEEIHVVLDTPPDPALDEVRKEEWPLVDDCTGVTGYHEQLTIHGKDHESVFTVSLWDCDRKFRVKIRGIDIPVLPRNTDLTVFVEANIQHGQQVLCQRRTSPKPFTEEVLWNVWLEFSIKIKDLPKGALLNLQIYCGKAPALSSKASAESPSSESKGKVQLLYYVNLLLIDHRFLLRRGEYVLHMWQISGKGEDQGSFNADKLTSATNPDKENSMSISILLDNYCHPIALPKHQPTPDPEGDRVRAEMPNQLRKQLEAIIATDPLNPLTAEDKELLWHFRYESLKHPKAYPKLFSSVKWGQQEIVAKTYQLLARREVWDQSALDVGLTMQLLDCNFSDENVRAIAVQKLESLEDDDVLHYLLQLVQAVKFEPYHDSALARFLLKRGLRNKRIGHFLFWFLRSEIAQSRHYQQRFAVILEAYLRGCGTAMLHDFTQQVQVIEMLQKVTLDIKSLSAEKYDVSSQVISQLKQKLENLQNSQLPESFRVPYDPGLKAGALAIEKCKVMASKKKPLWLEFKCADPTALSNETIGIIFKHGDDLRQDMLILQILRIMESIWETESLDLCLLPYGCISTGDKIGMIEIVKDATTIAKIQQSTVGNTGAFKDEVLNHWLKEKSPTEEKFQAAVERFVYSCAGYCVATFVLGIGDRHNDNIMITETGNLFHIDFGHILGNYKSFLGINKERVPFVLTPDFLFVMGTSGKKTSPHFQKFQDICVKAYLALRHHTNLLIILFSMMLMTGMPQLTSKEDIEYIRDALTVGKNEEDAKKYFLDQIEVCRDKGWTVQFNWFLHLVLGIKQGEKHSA
Chain of PI3K (p110β/p85α) (h) (P42338 whole entry): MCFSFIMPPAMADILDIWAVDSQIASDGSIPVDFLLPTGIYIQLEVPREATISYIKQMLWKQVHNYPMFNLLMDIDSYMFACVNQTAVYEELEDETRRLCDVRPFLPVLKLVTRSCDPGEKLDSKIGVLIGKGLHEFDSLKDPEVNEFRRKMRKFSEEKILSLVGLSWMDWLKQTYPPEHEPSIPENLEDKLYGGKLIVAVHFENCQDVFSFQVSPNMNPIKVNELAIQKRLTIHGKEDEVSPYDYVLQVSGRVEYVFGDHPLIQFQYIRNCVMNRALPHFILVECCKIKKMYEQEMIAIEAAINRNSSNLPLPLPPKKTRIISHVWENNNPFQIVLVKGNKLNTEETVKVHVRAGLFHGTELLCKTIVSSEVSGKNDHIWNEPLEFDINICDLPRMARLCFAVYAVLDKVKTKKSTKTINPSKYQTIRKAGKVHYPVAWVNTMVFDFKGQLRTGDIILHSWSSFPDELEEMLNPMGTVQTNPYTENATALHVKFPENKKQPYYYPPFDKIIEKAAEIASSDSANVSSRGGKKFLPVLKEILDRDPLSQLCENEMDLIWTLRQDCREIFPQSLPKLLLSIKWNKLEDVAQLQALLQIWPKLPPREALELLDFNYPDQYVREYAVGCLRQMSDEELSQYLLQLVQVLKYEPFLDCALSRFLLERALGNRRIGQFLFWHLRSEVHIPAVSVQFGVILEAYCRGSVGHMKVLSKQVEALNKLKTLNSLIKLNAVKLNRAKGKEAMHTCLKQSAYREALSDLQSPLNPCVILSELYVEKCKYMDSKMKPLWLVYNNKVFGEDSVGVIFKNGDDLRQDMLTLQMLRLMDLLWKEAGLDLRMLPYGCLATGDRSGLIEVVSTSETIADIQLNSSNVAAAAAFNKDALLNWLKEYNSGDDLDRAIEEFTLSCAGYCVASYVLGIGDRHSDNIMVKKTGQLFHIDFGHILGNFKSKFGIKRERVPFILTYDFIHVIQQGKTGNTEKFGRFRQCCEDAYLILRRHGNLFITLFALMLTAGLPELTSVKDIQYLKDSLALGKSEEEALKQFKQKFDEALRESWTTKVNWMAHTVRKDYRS
Chain of PI3K (p110β/p85α) (h) (P27986 whole entry partner): as the sequence (P27986 whole entry partner) above

Structure (SMILES)	efficacy in mouse model of rheumatoid arthritis [1]	effect on onset of disease in model of systemic lupus erythematosis [2]	inhibits PI3Kδ (PI3Kδ)	activity against any protein kinases tested (protein kinases)	effect on inflammation and disease [3]	CLint scaled at 5 μM [4] [mL/min/kg]	half-life at 5 μM [4] [min]	CLint scaled at 5 μM [5] [mL/min/kg]	half-life at 5 μM [5] [min]	Cl/F [6] [mL/min/kg]	F [6] [%]	AUC(0-t) [6] [ng·h/mL]	half-life [6] [min]	Vd [6] [L/kg]	IC50 (PI3K (p110α/p85α) (h)) [nM]	IC50 (PI3K (p110δ/p85α) (h)) [nM]	IC50 (PI3K (p120γ) (h)) [nM]	IC50 (PI3K (p110β/p85α) (h)) [nM]
O=C1NC(=O)/C(=C\c2ccc3nccnc3c2)S1 [AS 605240]	efficacious	delay onset of disease																
Cc1ccccc1-n1c(Cn2cnc3c(N)ncnc32)nc2cccc(C)c2c1=O [IC87114]			high nanomolar range (triple digit)	no activity	significantly ameliorate inflammation and disease													
Cc1noc(-c2c(N)ncnc2N[C@@H](C)c2cc3cccc(Cl)c3c(=O)n2C2CC2)n1 [Ex. 24, (S)-3-(1-((6-amino-5-(3-methyl-1,2,4-oxadiazol-5-yl)pyrimidin-4-yl)amino)ethyl)-8-chloro-2-cyclopropylisoquinolin-1(2H)-one]						114	15.3	190	13.1	120	12.28	139	45	5.46	307	3	15	
CC[C@H](Nc1ncnc(N)c1-c1nnc(C)o1)c1cc2cccc(Cl)c2c(=O)n1-c1ccccc1 [Ex. 5, (S)-3-(1-((6-amino-5-(5-methyl-1,3,4-oxadiazol-2-yl)pyrimidin-4-yl)amino)propyl)-8-chloro-2-phenylisoquinolin-1(2H)-one]						29.2	59.6	108	23.1	52.2	106.3	320	31.8	1.87	> 3000		388	259
Cc1nnc(-c2c(N)ncnc2N[C@@H](C)c2cc3cccc(-c4cnn(C)c4)c3c(=O)n2-c2ccccc2)o1 [Ex. 27, (S)-3-(1-((6-amino-5-(5-methyl-1,3,4-oxadiazol-2-yl)pyrimidin-4-yl)amino)ethyl)-8-(1-methyl-1H-pyrazol-4-yl)-2-phenylisoquinolin-1(2H)-one]						15.5	112	33.3	74.5						> 3000	17	237	> 3000
Cc1nc(-c2c(N)ncnc2N[C@@H](C)c2cc3cccc(Cl)c3c(=O)n2C2CC2)no1 [Ex. 11, (S)-3-(1-((6-amino-5-(5-methyl-1,2,4-oxadiazol-3-yl)pyrimidin-4-yl)amino)ethyl)-8-chloro-2-cyclopropylisoquinolin-1(2H)-one]						545	3.19	317	7.83						1480	13	375	
Cc1noc(-c2c(N)ncnc2N[C@@H](C)c2cc3cccc(-c4cnn(C)c4)c3c(=O)n2-c2ccccc2)n1 [Ex. 28, (S)-3-(1-((6-amino-5-(3-methyl-1,2,4-oxadiazol-5-yl)pyrimidin-4-yl)amino)ethyl)-8-(1-methyl-1H-pyrazol-4-yl)-2-phenylisoquinolin-1(2H)-one]						64.1	27.1	72.7	34.2						225	9	104	1170
